Laboratory results taken from patent publication EP0127864A2, “D-homo-4,9,16-estratrienes, their preparation and pharmaceutical compositions containing them” (SCHERING AKTIENGESELLSCHAFT, priority 1983, dated 1984).

Tested on: Ratte
Experiment: Abortive effect in pregnant rats (measure of antigestagenic activity)
Format: in vivo
Conditions: for n Abort / n Gesamt: subcutan, d5 p.c. to d7 p.c., uteri examined d9 p.c., absence of implants counted as abortion
From the text: Zur Kennzeichnung der antigestagenen Wirkung wurde die abortive Wirkung bestimmt.
Die Versuche wurden an weiblichen Ratten im Gewicht von ca. 200 g durchgeführt. Nach erfolgter Anpaarung wurde der Schwangerschaftsbeginn durch Nachweis von Spermien in Vaginalabstrichen gesichert. Der Tag des Spermiennachweises gilt als Tag 1 der Gravidität (= dl p.c.).
Die Behandlung der Tiere mit der jeweils zu testenden Substanz bzw. dem Lösungsmittel erfolgte nach der Nidation der Blastocysten von d5 p.c. bis d7 p.c.
An d9 p.c. wurden die Tiere getötet und die Uteri auf Implantate und Resorptionsstellen hin untersucht. Von allen Uteri wurden Fotos angefertigt. Das Fehlen von Implantaten wurde als Abort gewertet.
Die Testsubstanzen wurden in einem Benzylbenzoat-Rizinusöl-Gemisch (Verhältnis 1 + 9) gelöst. Das Vehikelvolumen pro Einzeldosis betrug 0,2 ml. Die Behandlung erfolgte subcutan.

Row | SMILES | Wirksamkeit (Abortauslösung) (Dosierung 1,0 mg, result in words) | n Abort / n Gesamt (Dosis 0.3 mg/Tier/Tag) | n Abort / n Gesamt (Dosis 1.0 mg/Tier/Tag) | n Abort / n Gesamt (Dosis 3.0 mg/Tier/Tag) | n Abort / n Gesamt (Dosis 10.0 mg/Tier/Tag) | Aborte (Dosierung 1,0 mg)
1 | CC#C[C@]1(O)C=CC[C@H]2[C@@H]3CCC4=CC(=O)CCC4=C3[C@@H](c3ccc(N(C)C)cc3)C[C@@]21C [A, 11ß-(4-Dimethylaminophenyl)-17aß-hydroxy-17aα-(1-propinyl)-U-homo-4,9,16-estratrien-3-on] | voll wirksam | 2/4 | 4/4 | 4/4 | 4/4 | –
2 | CC#C[C@]1(O)CC[C@H]2[C@@H]3CCC4=CC(=O)CCC4=C3[C@@H](c3ccc(N(C)C)cc3)C[C@@]21C [B, 11ß-(4-Dimethylaminophenyl)-17ß-hydroxy-17a-(propin-1-yl)-4,9(10)-estradien-3-on, reference compound] | – | – | 2/4 | 4/4 | 4/4 | 50%
